Measured values taken from ChEMBL document CHEMBL5537177, “Discovery of Potent Antimalarial Type II Kinase Inhibitors with Selectivity over Human Kinases” (J Med Chem, 2024).
Calls of active or inactive are those of the source. The rule behind the calls is not given here.

Columns and labels:
[1] = test system: Plasmodium falciparum; experiment: Antimalarial activity against Plasmodium falciparum at ring stage infected erythrocytes assessed as reduction in parasitemia measured after 60 hrs by flow cytometry; format: functional, organism-based; conditions: Erythrocyte
[2] = test system: Plasmodium falciparum; experiment: Antiplasmodial activity against multidrug-resistant Plasmodium falciparum Dd2 at ring stage infected in A+ erythrocytes assessed as parasite growth reduction incubated for 72 hrs by SYBR Green I dye based analysis; format: functional, organism-based; conditions: Dd2, Erythrocyte
[3] = test system: Plasmodium falciparum; experiment: (§1) Antimalarial activity against artemisinin-resistant synchronized early ring stage Plasmodium falciparum IPC 5202 (MRA-1240) clinical isolate assessed as decrease in parasite survival at ring stage at 10 times EC50 treated for 6 hrs followed by compound removal measured after 72 hrs by geimsa staining based microscopy; format: functional, organism-based
[4] = test system: Plasmodium falciparum; experiment: as §1, with “artemisinin-sensitive” for “artemisinin-resistant”, “5188 (MRA-1239)” for “5202 (MRA-1240)”; format: functional, organism-based
[5] = test system: Plasmodium falciparum; experiment: Antimalarial activity against synchronous blood-stage Plasmodium falciparum 3D7 assessed as log of parasite reduction ratio at 10 times EC50 treated every 24 hrs for 120 hrs followed by compound washout and subsequent addition of RBCs measured after 21 days; format: functional
[6] = test system: Plasmodium falciparum; experiment: (§2) Antimalarial activity against synchronized early ring stage Plasmodium falciparum 3D7 (MRA-152) clinical isolate assessed as decrease in parasite survival at ring stage at 10 times EC50 treated for 6 to 48 hrs followed by compound removal measured after 72 hrs by geimsa staining based microscopy; format: functional, organism-based
[7] = test system: Plasmodium falciparum; experiment: as §2, with “against artemisinin/piperaquine-sensitive” for “against”, “IPC 5188 (MRA-1239)” for “3D7 (MRA-152)”; format: functional, organism-based
[8] = test system: Plasmodium falciparum; experiment: Resistance index, ratio of EC50 for multidrug-resistant Plasmodium falciparum Dd2 at ring stage infected in A+ erythrocytes to EC50 for drug-sensitive Plasmodium falciparum 3D7 at ring stage infected in A+ erythrocytes; format: organism-based; conditions: human
[9] = test system: Plasmodium falciparum; experiment: Antimalarial activity against synchronized early ring stage Plasmodium falciparum 3D7 (MRA-152) clinical isolate assessed as decrease in parasite survival at ring stage at 10 times EC50 treated for 6 hrs followed by compound removal measured after 72 hrs by geimsa staining based microscopy; format: functional, organism-based
[10] = test system: Plasmodium falciparum; experiment: Antimalarial activity against synchronous blood-stage Plasmodium falciparum 3D7 assessed as parasite clearance time at 10 times EC50 treated every 24 hrs for 120 hrs followed by compound washout and subsequent addition of RBCs measured after 21 days by parasite reduction ratio assay; format: functional
[11] = test system: Plasmodium falciparum; experiment: as §1, with “artemisinin/piperaquine-resistant” for “artemisinin-resistant”, “6261 (MRA-1284)” for “5202 (MRA-1240)”, “48” for “6”; format: functional, organism-based
[12] = test system: Plasmodium falciparum; experiment: as §1, with “artemisinin-resistant/piperaquine-sensitive” for “artemisinin-resistant”, “6 to 48” for “6”; format: functional, organism-based
[13] = Metabolic stability in mouse liver microsomes assessed as intrinsic clearance; format: ADME, Liver cells
[14] = test system: Plasmodium falciparum; experiment: as §1, with “48” for “6”; format: functional, organism-based
[15] = test system: Plasmodium falciparum; experiment: as §1, with “artemisinin/piperaquine-resistant” for “artemisinin-resistant”, “6261 (MRA-1284)” for “5202 (MRA-1240)”; format: functional, organism-based
[16] = test system: MCF7; experiment: (§3) Cytotoxicity against human MCF7 cells assessed as reduction in cell viability incubated for 48 hrs by MTS assay; format: toxicity, cell-based; conditions: mcf7
[17] = test system: HepG2; experiment: (§4) Cytotoxicity against human HepG2 cells assessed as reduction in cell viability incubated for 48 hrs by MTS assay; format: toxicity, cell-based; conditions: hepg2
[18] = test system: Plasmodium falciparum; experiment: as §1, with “artemisinin-sensitive” for “artemisinin-resistant”, “5188 (MRA-1239)” for “5202 (MRA-1240)”, “48” for “6”; format: functional, organism-based
[19] = Selectivity index, ratio of EC50 for human HepG2 cells to EC50 for multidrug-resistant Plasmodium falciparum Dd2 at ring stage infected in A+ erythrocytes; format: toxicity, cell-based; conditions: read-out: Ratio EC50
[20] = test system: Plasmodium falciparum; experiment: Antimalarial activity against synchronous blood-stage Plasmodium falciparum 3D7 assessed as duration of lag phase at 10 times EC50 treated every 24 hrs for 120 hrs followed by compound washout and subsequent addition of RBCs measured after 21 days by parasite reduction ratio assay; format: functional
[21] = test system: Plasmodium falciparum; experiment: Antiplasmodial activity against drug-sensitive Plasmodium falciparum 3D7 at ring stage infected in A+ erythrocytes assessed as parasite growth reduction incubated for 72 hrs by SYBR Green I dye based analysis; format: functional, organism-based; conditions: 3D7, Erythrocyte
[22] = test system: Plasmodium falciparum; experiment: Antimalarial activity against synchronized early ring stage Plasmodium falciparum 3D7 (MRA-152) clinical isolate assessed as decrease in parasite survival at ring stage at 10 times EC50 treated for 48 hrs followed by compound removal measured after 72 hrs by geimsa staining based microscopy; format: functional, organism-based
[23] = Metabolic stability in mouse liver microsomes assessed as half life; format: ADME, Liver cells
[24] = Selectivity index, ratio of EC50 for human MCF7 cells to EC50 for multidrug-resistant Plasmodium falciparum Dd2 at ring stage infected in A+ erythrocytes; format: toxicity, cell-based; conditions: read-out: Ratio EC50
[25] = test system: Plasmodium falciparum; experiment: as §2, with “against artemisinin/piperaquine-resistant” for “against”, “IPC 6261 (MRA-1284)” for “3D7 (MRA-152)”; format: functional, organism-based
[26] = molecular target: Ephrin type-A receptor 2 (Homo sapiens, UniProt P29317); experiment: Inhibition of human EphA2 by FRET assay
[27] = test system: Plasmodium falciparum; experiment: microbe, parasite or virus in culture; conditions: Dd2, 72 h
Description: Antiplasmodial activity against asynchronous Plasmodium falciparum Dd2 assessed as parasite growth reduction incubated for 72 hrs by SYBR Green I dye based analysis

[28] = Volume of distribution at steady state in Balb/C mouse at 3 mg/kg, iv; format: ADME, organism-based; conditions: in vivo, read-out: Vdss
[29] = Half life in Balb/C mouse at 3 mg/kg, iv; format: ADME, organism-based; conditions: in vivo
[30] = test system: Plasmodium falciparum; experiment: Antimalarial activity against Plasmodium falciparum harboring AcAS A597V mutation assessed as reduction in parasitemia incubated for 72 hrs by SYBR green I dye based analysis; format: functional, organism-based
[31] = test system: Plasmodium falciparum; experiment: Antimalarial activity against Plasmodium falciparum harboring CARL I1139K mutation assessed as reduction in parasitemia incubated for 72 hrs by SYBR green I dye based analysis; format: functional, organism-based
[32] = test system: Plasmodium falciparum; experiment: microbe, parasite or virus in culture; conditions: Dd2, 72 h; remark: listed apart in the source
Description: Antimalarial activity against wild-type Plasmodium falciparum Dd2 assessed as reduction in parasitemia incubated for 72 hrs by SYBR green I dye based analysis

[33] = test system: Plasmodium falciparum; experiment: Antimalarial activity against Plasmodium falciparum harboring PI4K S1320L mutation assessed as reduction in parasitemia incubated for 72 hrs by SYBR green I dye based analysis; format: functional, organism-based
[34] = as §3; format: toxicity, cell-based; conditions: human, MCF7 cells
[35] = as §4; format: toxicity, cell-based; conditions: human, HepG2 cells

Ephrin type-A receptor 2, sequence (P29317 whole entry): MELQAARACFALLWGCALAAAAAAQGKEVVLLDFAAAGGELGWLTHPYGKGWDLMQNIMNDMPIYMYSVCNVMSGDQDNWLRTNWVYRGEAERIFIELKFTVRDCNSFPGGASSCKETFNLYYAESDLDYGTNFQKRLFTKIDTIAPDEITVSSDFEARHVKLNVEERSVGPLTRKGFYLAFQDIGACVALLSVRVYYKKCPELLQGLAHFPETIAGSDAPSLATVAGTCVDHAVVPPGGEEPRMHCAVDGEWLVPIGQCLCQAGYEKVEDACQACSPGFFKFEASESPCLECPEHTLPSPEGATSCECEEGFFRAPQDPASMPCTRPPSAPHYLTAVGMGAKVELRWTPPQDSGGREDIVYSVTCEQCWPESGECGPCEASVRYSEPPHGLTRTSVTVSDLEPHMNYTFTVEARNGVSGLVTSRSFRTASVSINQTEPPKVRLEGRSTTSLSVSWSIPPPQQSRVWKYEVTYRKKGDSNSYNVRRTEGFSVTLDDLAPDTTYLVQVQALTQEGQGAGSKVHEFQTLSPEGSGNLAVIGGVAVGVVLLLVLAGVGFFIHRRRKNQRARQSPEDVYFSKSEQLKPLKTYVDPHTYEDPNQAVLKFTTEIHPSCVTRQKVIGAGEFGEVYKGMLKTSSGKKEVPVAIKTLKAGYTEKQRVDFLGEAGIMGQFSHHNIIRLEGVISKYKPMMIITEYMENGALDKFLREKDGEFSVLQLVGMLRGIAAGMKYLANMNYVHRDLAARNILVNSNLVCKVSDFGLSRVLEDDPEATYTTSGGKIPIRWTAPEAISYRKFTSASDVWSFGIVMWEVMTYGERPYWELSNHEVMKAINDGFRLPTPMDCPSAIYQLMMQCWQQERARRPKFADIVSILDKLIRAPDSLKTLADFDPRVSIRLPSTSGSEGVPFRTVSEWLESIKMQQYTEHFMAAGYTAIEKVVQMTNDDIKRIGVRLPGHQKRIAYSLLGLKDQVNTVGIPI

For Cc1cn(-c2cc(NC(=O)c3ccc(C)c(Nc4nccc(-c5cccnc5)n4)c3)cc(C(F)(F)F)c2)cn1 [NILOTINIB], the EC50 [1] was < 1000 nM.
Work on Cc1ccc(NC(=O)c2ccc(CN3CC[C@H](N(C)C)C3)c(C(F)(F)F)c2)cc1Nc1nccc(-c2cncnc2)n1 [BAFETINIB] yielded an EC50 [1] of 1300 nM.
In the case of CCN1CCN(Cc2ccc(NC(=O)c3cc(Cl)cc(NC(=O)c4cncc(-c5ccc(C#N)cc5)c4)c3)cc2C(F)(F)F)CC1, the EC50 [2] is reported as 36 nM, the Activity [3] is reported as “inactive” and the Activity [4] is reported as “inactive”. For the same compound, the “log(activity)” value [5] was 5.12, the EC50 [6] was 53.5 nM and the EC50 [7] was 43.9 nM. The “Ratio EC50” value [8] was 1, the Activity [9] was “inactive” and the T99.9% [10] was < 32 h. For the same compound, the Activity [11] was “Active”, the EC50 [12] was 41.5 nM and the intrinsic clearance [13] was 16 µL/min/mg. The Activity [14] was “Active”, the Activity [15] was “inactive” and the EC50 [16] was 2190 nM. The EC50 [17] was 1460 nM, the Activity [18] was “Active” and the selectivity ratio [19] was 41. The Time [20] was 0 h, the EC50 [21] was 36 nM and the Activity [22] was “Active”. It also gave a t1/2 [23] of 0.708 h, a selectivity ratio [24] of 61 and an EC50 [25] of 64.9 nM.
For CCN1CCN(Cc2ccc(NC(=O)c3cc(NC(=O)c4cncc(-c5cccs5)c4)cc(OC)c3)cc2C(F)(F)F)CC1, the IC50 [26] was > 10000 nM and the EC50 [27] was 341 nM.
With C[C@H]1[C@@H](O)O[C@@H]2O[C@@]3(C)CC[C@H]4[C@H](C)CC[C@@H]1[C@@]24OO3 [ARTENIMOL] the “log(activity)” value [5] was 3.93, the T99.9% [10] was 31 h and the Time [20] was 0 h.
With O=C1C(O)=C([C@H]2CC[C@H](c3ccc(Cl)cc3)CC2)C(=O)c2ccccc21 [ATOVAQUONE] the “log(activity)” value [5] was 2.95, the T99.9% [10] was 101 h and the Time [20] was 72 h.
With CC1(C)c2nc(-c3ccc(F)cc3)c(Nc3ccc(Cl)cc3)n2CCN1C(=O)CN the Vd [28] was 11.8 L/kg, the half-life [29] was 8.9 h and the EC50 [30] was 1.1 nM. For the same compound, the EC50 [31] was 1380 nM, the EC50 [32] was 1.8 nM and the EC50 [33] was 1.9 nM.
With CCN1CCN(Cc2ccc(NC(=O)c3ccc(C)c(NC(=O)c4cncc(-c5cccs5)c4)c3)cc2C(F)(F)F)CC1 the IC50 [26] was 11 nM and the EC50 [27] was 3910 nM.
For CCN1CCN(Cc2ccc(NC(=O)c3cc(C)cc(NC(=O)c4cncc(-c5cccs5)c4)c3)cc2C(F)(F)F)CC1, the EC50 [2] was 372 nM, the “Ratio EC50” value [8] was 1.6 and the EC50 at 48 h [34] was 5220 nM. The EC50 at 48 h [35] was 3200 nM, the selectivity ratio [19] was 8.6 and the EC50 [21] was 235 nM. The selectivity ratio [24] was 14.
